In data set [1] the target is PI3Kγ (Homo sapiens, UniProt P48736). Description: In vitro PI3K enzyme inhibitory assay (ADP-Glo), PI3Kγ. The data set is classed as biochemical. As to conditions: read-out: PI3Kγ % inhibition at 10 μM.
Data set [2] concerns AKT. Description: In vitro AKT enzyme inhibitory assay. The data set is classed as biochemical.
Data set [3] concerns the target PI3Kα (Homo sapiens, UniProt P42336). The experiment in a line: In vitro PI3K enzyme inhibitory assay (ADP-Glo), PI3Kα. The data set is classed as biochemical. Particulars: read-out: PI3Kα % inhibition at 10 μM.
The subject of data set [4] is HO-1 levels in RAW264.7 cells. The experiment in a line: ELISA, HO-1 in RAW264.7. The data set is classed as cell-based, Mouse. Particulars: RAW264.7, 24 h.
Data set [5] deals with LO2 cell lines (normal liver cell).
Data set [6] relates to WI38 normal cells. Description: cells. As to conditions: Homo sapiens, WI-38, read-out: IC50 WI38.
Data set [7] addresses PI3Kβ (Homo sapiens, UniProt P42338). Description: In vitro PI3K enzyme inhibitory assay (ADP-Glo), PI3Kβ. The data set is classed as biochemical. As to conditions: read-out: PI3Kβ % inhibition at 10 μM.
Data set [8] concerns HeLa. Description: cells. The data set is classed as cell-based. As to conditions: Homo sapiens, HeLa, read-out: IC50 against cell proliferation, HeLa.
The test system of data set [9] is HepG2 cell lines (liver tumor cell).
The subject of data set [10] is nitrite production in RAW264.7 cells. Description: Griess assay, LPS-induced nitrite production in RAW264.7. The data set is classed as cell-based. As to conditions: Mus musculus, 24 h, 1 mg/mL LPS. From the text: Nitric oxide (NO) affects inflammation signaling pathways, regulating the intensity and timing of inflammatory responses, making it a crucial regulatory molecule in inflammation. LPS induces the production of nitric oxide (NO) by activating a series of signal transduction pathways. Upon NF-κB activation, transcription of the iNOS gene is promoted, leading to the synthesis of inducible nitric oxide synthase (iNOS). iNOS is an enzyme that produces large amounts of NO, activated under inflammatory conditions to release substantial nitric oxide ([Kumar, 2023]). In vivo, NO is easily oxidized by superoxide ions to generate nitrites. Studies have shown that H2S not only acts to scavenge peroxides but also undergoes chemical reactions with NO, forming novel nitrosylthiol compounds. We assess the anti-inflammatory activity of compounds by measuring nitrite production ([Somensi et al., 2019]).
The Griess assay is used to measure nitrite levels in biological samples, both in vivo and in vitro. See Supplementary Material for more details ([Kumar, 2023]).
The Griess assay is used to measure nitrite levels in biological samples, both in vivo and in vitro. […] The absorbance is measured at a wavelength of 540-550 nanometers, and the concentration of the red product is directly proportional to the absorbance. Nitrite concentrations can be calculated using a standard curve.

Data set [11] has as its system A549. Description: cells. The data set is classed as cell-based. As to conditions: Homo sapiens, A549, read-out: IC50 against cell proliferation, A549.
A short description of data set [12]: H2S release, methylene blue (MB+) method. Particulars: MB+ method with TECP or cysteine; different temperature and pH. The data set is classed as physicochemical.
The test system of data set [13] is MCF-7. The experiment in a line: cells. The data set is classed as cell-based. Particulars: Homo sapiens, MCF7, read-out: IC50 against cell proliferation, MCF-7.
In data set [14] the test system is TNF-α levels in RAW264.7 cells. The experiment in a line: ELISA, LPS-mediated TNF-α in RAW264.7. The data set is classed as cell-based, Mouse. Particulars: LPS-induced RAW264.7, 24 h, vs control group.
Data set [15] has as its system RAW264.7 macrophage cells. The experiment in a line: CCK-8 cell viability, RAW264.7 macrophages. The data set is classed as cell-based, Mouse. Particulars: 24 h. The protocol: To obtain more accurate anti-inflammatory results and minimize the impact of cell death caused by the test compounds on the outcomes, we first evaluated the effects of the compounds on RAW264.7 macrophage viability. The cells were divided into two groups: one treated with […] LPS and the other untreated. Macrophages were exposed to compounds at concentrations of 10, 50, and 100 μM for 24 h, followed by cell viability measurement using the CCK-8 assay ([Huang et al., 2022]; [Flannigan and Wallace, 2015]; [Citi et al., 2020]; [Gemici and Wallace, 2015]). […] In the presence of LPS stimulation, a slight reduction of 11% cell activity was observed.
The CCK-8 assay is a commonly used method for assessing cell viability, based on cellular metabolic activity. […]
The CCK-8 assay is a commonly used method for assessing cell viability, based on cellular metabolic activity. […] The culture plate is then incubated in a suitable incubator for a defined period (usually 4 hours), followed by measuring the absorbance of each group's culture medium using a spectrophotometer, typically at a wavelength of 450 nanometers. Cell relative activity or viability is calculated based on absorbance values, often by subtracting the background absorbance from the control group's values and normalizing to the control group's values to obtain relative activity or viability.

The test system of data set [16] is LO2 cell lines (normal liver cell). The experiment in a line: cells. As to conditions: Homo sapiens, L02, 24 h, read-out: IC50 LO2.
For data set [17], the system named is HepG2 cell lines (liver tumor cell). The experiment in a line: cells. Particulars: Homo sapiens, HepG2, 24 h, read-out: IC50 HepG2.
Data set [18] deals with WI38 normal cells.
Data set [19] concerns IL-10 level in RAW264.7 cells. The experiment in a line: ELISA, IL-10 in RAW264.7. The data set is classed as cell-based, Mouse. Particulars: RAW264.7, 24 h.

The record followed here is PMC11790660 (Frontiers in Chemistry, 2025).

Each structure is given as a SMILES string.

Chain of PI3Kγ (P48736 whole entry): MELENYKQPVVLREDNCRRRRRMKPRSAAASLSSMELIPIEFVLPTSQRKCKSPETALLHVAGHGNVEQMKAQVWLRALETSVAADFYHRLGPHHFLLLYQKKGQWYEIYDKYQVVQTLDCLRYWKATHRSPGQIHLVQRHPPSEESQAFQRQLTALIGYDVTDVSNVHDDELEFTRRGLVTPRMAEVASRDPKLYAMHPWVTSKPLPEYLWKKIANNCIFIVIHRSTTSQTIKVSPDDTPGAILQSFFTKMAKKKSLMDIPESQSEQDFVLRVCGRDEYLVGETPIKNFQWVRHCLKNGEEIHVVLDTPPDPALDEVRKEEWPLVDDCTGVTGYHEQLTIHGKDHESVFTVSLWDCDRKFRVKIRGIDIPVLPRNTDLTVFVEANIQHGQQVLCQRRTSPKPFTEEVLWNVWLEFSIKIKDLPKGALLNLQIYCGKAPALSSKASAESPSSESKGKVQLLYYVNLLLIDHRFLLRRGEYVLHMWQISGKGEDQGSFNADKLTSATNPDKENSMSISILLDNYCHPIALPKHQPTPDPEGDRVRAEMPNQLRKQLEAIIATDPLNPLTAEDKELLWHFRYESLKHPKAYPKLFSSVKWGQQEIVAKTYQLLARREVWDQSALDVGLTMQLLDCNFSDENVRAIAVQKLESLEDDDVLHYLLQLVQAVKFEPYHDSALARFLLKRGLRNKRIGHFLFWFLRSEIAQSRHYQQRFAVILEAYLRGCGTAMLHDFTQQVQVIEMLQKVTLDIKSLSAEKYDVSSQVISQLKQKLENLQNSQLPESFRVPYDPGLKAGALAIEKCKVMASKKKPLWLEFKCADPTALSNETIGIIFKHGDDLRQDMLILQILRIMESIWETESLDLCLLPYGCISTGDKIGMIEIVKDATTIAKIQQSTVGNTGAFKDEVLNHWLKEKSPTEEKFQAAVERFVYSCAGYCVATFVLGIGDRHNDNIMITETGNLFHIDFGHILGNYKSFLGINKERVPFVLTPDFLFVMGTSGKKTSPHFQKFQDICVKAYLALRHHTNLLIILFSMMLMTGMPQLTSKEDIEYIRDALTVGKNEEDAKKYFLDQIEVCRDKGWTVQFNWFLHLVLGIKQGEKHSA
Chain of PI3Kα (P42336 whole entry): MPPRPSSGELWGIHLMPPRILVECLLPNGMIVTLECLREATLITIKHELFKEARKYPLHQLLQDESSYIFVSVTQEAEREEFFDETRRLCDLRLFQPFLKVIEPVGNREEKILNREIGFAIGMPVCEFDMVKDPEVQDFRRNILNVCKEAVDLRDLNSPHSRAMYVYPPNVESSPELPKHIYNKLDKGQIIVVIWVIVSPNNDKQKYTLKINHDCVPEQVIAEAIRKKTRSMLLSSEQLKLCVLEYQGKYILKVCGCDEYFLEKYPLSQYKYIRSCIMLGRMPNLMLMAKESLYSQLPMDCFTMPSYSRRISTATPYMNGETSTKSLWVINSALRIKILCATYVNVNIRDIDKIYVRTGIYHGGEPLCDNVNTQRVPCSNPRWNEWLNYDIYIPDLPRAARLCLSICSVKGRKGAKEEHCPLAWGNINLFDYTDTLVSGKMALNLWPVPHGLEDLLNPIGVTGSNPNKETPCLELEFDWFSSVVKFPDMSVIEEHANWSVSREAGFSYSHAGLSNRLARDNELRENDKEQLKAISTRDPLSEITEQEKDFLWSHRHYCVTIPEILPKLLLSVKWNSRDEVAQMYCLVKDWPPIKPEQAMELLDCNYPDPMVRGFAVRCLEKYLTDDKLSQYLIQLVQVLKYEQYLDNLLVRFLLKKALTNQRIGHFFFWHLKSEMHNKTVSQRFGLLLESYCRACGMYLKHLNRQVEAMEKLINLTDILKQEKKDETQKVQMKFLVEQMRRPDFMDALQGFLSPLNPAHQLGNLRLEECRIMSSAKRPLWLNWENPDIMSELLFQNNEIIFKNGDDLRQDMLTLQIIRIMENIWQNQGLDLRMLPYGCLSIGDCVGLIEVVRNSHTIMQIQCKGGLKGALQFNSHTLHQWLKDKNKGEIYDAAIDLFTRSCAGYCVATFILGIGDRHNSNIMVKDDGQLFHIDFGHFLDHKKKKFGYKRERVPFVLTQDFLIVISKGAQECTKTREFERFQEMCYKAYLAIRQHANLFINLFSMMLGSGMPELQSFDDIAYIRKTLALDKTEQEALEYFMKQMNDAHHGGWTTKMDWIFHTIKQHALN
Chain of PI3Kα (P27986 whole entry partner): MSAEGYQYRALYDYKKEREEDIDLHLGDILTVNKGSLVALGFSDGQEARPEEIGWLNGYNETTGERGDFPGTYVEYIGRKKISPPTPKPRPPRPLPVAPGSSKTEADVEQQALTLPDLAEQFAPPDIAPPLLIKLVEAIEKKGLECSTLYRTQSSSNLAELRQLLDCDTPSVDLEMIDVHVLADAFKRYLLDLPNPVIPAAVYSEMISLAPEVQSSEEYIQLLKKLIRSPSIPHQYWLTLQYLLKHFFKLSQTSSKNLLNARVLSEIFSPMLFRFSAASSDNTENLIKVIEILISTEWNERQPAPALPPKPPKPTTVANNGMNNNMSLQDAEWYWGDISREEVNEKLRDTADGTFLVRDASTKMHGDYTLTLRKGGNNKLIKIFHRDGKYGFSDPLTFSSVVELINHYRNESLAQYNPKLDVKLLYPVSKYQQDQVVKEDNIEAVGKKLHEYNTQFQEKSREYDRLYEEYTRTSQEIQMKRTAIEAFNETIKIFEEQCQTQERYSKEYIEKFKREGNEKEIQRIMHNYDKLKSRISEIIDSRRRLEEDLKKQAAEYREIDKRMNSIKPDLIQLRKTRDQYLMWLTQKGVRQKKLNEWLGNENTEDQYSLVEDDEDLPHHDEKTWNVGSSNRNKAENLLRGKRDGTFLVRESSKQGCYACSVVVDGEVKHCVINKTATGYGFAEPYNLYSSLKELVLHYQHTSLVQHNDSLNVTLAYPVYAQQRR
Chain of PI3Kβ (P42338 whole entry): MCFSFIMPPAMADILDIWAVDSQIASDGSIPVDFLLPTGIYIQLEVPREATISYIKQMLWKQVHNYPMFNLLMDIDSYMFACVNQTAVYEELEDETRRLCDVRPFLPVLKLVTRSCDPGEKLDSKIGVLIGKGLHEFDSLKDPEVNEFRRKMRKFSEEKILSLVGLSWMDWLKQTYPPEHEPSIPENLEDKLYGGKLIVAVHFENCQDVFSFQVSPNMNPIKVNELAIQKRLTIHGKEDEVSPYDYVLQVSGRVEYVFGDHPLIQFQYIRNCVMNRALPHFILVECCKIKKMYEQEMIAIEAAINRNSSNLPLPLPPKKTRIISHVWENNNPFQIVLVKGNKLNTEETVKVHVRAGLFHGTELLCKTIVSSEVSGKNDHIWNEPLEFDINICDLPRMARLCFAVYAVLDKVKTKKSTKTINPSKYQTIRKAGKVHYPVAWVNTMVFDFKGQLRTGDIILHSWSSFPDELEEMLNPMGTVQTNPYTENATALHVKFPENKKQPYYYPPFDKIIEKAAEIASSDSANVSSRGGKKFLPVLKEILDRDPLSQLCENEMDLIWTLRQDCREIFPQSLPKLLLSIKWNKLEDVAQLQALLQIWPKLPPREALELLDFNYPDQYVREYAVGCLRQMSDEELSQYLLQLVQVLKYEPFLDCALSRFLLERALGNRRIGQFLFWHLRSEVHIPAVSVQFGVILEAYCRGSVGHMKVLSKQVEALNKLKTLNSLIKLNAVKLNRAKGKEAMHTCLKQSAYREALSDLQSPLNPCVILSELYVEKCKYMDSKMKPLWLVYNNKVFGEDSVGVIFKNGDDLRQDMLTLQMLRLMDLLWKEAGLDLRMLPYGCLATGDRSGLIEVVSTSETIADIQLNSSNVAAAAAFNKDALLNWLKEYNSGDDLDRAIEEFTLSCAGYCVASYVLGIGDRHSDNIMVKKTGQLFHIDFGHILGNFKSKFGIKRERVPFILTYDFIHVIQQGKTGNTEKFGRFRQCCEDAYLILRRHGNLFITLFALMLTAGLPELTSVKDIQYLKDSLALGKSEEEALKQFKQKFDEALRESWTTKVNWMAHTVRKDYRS
Chain of PI3Kβ (P27986 whole entry partner): as the sequence (P27986 whole entry partner) above

For the molecule `O=[N+]([O-])c1ccc2c(c1)NP(=S)(c1ccccc1)O2` (centres unmarked) [Compound S11, 5-nitro-2-phenyl-3H-benzo [d][1,3,2] oxazaphosphole 2-sulfide], the inhibition at 10 µM in data set [1] was determined as 45%; in data set [3], 67%; in data set [7] it was 75%. Further, the “AKT % inhibition at 10 μM” value in data set [2] turned out to be 61%. The “HO-1 expression relative to control group” value in data set [4] was “approximately twice the level of the control group”. The “Toxicity in words, LO2” value in data set [5] is listed as “low cytotoxicity”. Besides, the IC50 in data set [6] was greater than 200 µM; in [8], 260 ± 7.6 µM; in data set [11], 294 ± 16.6 µM; in data set [13], 23 ± 3.2 µM; in [16], greater than 200 µM; in data set [17], greater than 400 µM. The “Toxicity in words, HepG2” value in [9] was “low cytotoxicity”. In data set [10], this molecule gave an inhibition at 100 µM of roughly 75%. In addition, the “H2S release amount (in words)” value in data set [12] is “the highest amount of hydrogen sulfide was released”. The “Decrease of TNF-α induction level” value in data set [14] is 80%. Further, the “Effect on RAW264.7 cell growth” value in data set [15] (absence of LPS, 10, 50, 100 μM) is listed as “no significant effect on cell growth”. Moreover, in data set [15] (presence of LPS stimulation, 10, 50, 100 μM), the “Reduction of RAW264.7 cell activity” value is 11%. Moreover, the “Toxicity in words, WI38” value in data set [18] is reported as “low cytotoxicity”. Also, the “Induction level of IL-10 relative to control group” value in data set [19] is “three times that of the control group”.
